Key:
A-431 = assay: Anticancer activity against human A-431 cells assessed as cell growth inhibition at 100 uM by MTT assay relative to control; assay type: functional
MCF7 [1] = assay: Anticancer activity against human MCF7 cells assessed as cell growth inhibition at 100 uM by MTT assay relative to control; assay type: functional
A549 = assay: Anticancer activity against human A549 cells assessed as cell growth inhibition at 100 uM by MTT assay relative to control; assay type: functional
HepG2 [2] = assay: Anticancer activity against human HepG2 cells assessed as cell growth inhibition at 100 uM by MTT assay relative to control; assay type: functional
HepG2 [3] = assay: Anticancer activity against human HepG2 cells assessed as cell growth inhibition measured after 48 hrs by MTT assay; assay type: functional, cell-based; conditions: HepG2, 48 h
PC-3 = assay: Anticancer activity against human PC-3 cells assessed as cell growth inhibition measured after 48 hrs by MTT assay; assay type: functional, cell-based; conditions: PC-3, 48 h
HCT-116 = assay: Anticancer activity against human HCT-116 cells assessed as cell growth inhibition measured after 48 hrs by MTT assay; assay type: functional, cell-based; conditions: HCT-116, 48 h
FaDu = assay: Anticancer activity against human FaDu cells assessed as cell growth inhibition measured after 48 hrs; assay type: functional, cell-based; conditions: Homo sapiens, FaDu, 48 h
MCF7 [4] = assay: Anticancer activity against human MCF7 cells assessed as cell growth inhibition measured after 48 hrs by MTT assay; assay type: functional, cell-based; conditions: MCF7, 48 h

Row | SMILES | inhibition at 100 µM (A-431) | inhibition at 100 µM (MCF7 [1]) | inhibition at 100 µM (A549) | inhibition at 100 µM (HepG2 [2]) | IC50 (HepG2 [3]) | IC50 (PC-3) | IC50 (HCT-116) | also measured
1 | CCCCCCCCCCCCCCCC(=O)N1CCC[C@H]1OP(=O)([O-])OCC[N+](C)(C)C | 0.3% | 22.6% | 71.6% | 10.1% | – | – | – | –
2 | O=C(/C=C/c1ccc(C(F)(F)F)cc1)[C@H]1[C@H](c2ccc(C(F)(F)F)cc2)[C@H]2CSCN2[C@]12C(=O)Nc1ccccc12 | – | – | – | – | ≥ 1.5 µM | 1 µM | – | –
3 | O=C(/C=C/c1ccco1)[C@H]1[C@H](c2ccco2)[C@H]2CSCN2[C@]12C(=O)Nc1ccccc12 | – | – | – | – | ≥ 1.5 µM | ≥ 0.8 µM | 1.57 µM | –
4 | CCCCCCCC/C=C\CC(=O)N1CC[C@H](OP(=O)([O-])OCC[N+](C)(C)C)C1 | 0.3% | 22.6% | 4.7% | 10.1% | – | – | – | –
5 | O=C(/C=C/c1ccc(F)cc1)[C@H]1[C@H](c2ccc(F)cc2)[C@H]2CSCN2[C@]12C(=O)Nc1ccc(Cl)cc12 | – | – | – | – | ≥ 1.5 µM | ≥ 0.8 µM | 1.57 µM | –
6 | O=C1Nc2ccccc2C12N[C@H](Cc1ccccc1)[C@@H](c1ccc(Br)cc1)[C@@]21CN(/C=C/c2ccccc2)C/C(=C\c2ccc(Br)cc2)C1=O (some centres not stated) | – | – | – | – | – | – | – | IC50 (FaDu): ≥ 19 µM
7 | CCCCCC/C=C\CCCCCCCC(=O)N1CC[C@@H](OP(=O)([O-])OCC[N+](C)(C)C)C1 | 0.3% | 22.6% | 4.7% | 10.1% | – | – | – | –
8 | CCCCCC/C=C\CCCCCCCC(=O)N1CC[C@H](OP(=O)([O-])OCC[N+](C)(C)C)C1 | 0.3% | 22.6% | 4.7% | 10.1% | – | – | – | –
9 | CCCCCCCCCCCCCCCC(=O)N1CCC[C@@H]1OP(=O)([O-])OCC[N+](C)(C)C | 0.3% | 22.6% | 4.7% | 10.1% | – | – | – | –
10 | O=C1Nc2ccccc2C12N[C@H](Cc1ccccc1)[C@@H](c1ccc(Cl)cc1)[C@@]21CN(/C=C/c2ccccc2)C/C(=C\c2ccc(Cl)cc2)C1=O (some centres not stated) | – | – | – | – | – | – | – | IC50 (FaDu): ≥ 19 µM
11 | O=C1Nc2ccccc2C12N[C@H](Cc1ccccc1)[C@@H](c1cccc([N+](=O)[O-])c1)[C@@]21CN(/C=C/c2ccccc2)C/C(=C\c2cccc([N+](=O)[O-])c2)C1=O (some centres not stated) | – | – | – | – | – | – | – | IC50 (FaDu): ≥ 19 µM
12 | CCCCCCCC/C=C\CC(=O)N1CCC[C@@H]1COP(=O)([O-])OCC[N+](C)(C)C | 0.3% | 93% | 4.7% | 10.1% | – | – | – | –
13 | CCCCCCCCCCCCCCCCOP(=O)([O-])OCC[N+](C)(C)C [MILTEFOSINE] | 35.4% | 69.4% | – | 31.3% | – | – | – | –
14 | CCCCCCCCCCCCCCCCC/C=C\CCCCCCCC(=O)N1CC[C@@H](OP(=O)([O-])OCC[N+](C)(C)C)C1 | 0.3% | 22.6% | 4.7% | 10.1% | – | – | – | –
15 | O=C(/C=C/c1ccc(F)cc1)[C@H]1[C@H](c2ccc(F)cc2)[C@H]2CSCN2[C@]12C(=O)Nc1ccc(Br)cc12 | – | – | – | – | 0.8 µM | ≥ 0.8 µM | – | –
16 | Cc1cccc(/C=C2\CN(/C=C/c3ccccc3)C[C@]3(C2=O)[C@H](c2cccc(C)c2)[C@@H](Cc2ccccc2)NC32C(=O)Nc3ccccc32)c1 (some centres not stated) | – | – | – | – | – | – | – | IC50 (FaDu): 21.8 µM
17 | COc1cccc(/C=C2\CN(/C=C/c3ccccc3)C[C@]3(C2=O)[C@H](c2cccc(OC)c2)[C@@H](Cc2ccccc2)NC32C(=O)Nc3ccccc32)c1 (some centres not stated) | – | – | – | – | – | – | – | IC50 (FaDu): ≥ 19 µM
18 | COc1ccccc1/C=C1\CN(/C=C/c2ccccc2)C[C@]2(C1=O)[C@H](c1ccccc1OC)[C@@H](Cc1ccccc1)NC21C(=O)Nc2ccccc21 (some centres not stated) | – | – | – | – | – | – | – | IC50 (FaDu): ≥ 19 µM
19 | O=C(/C=C/c1ccc(Br)cc1)[C@H]1[C@H](c2ccc(Br)cc2)[C@H]2CSCN2[C@]12C(=O)Nc1ccccc12 | – | – | – | – | 0.8 µM | ≥ 0.8 µM | 3 µM | –
20 | O=C(/C=C/c1cccc(Br)c1)[C@H]1[C@H](c2cccc(Br)c2)[C@H]2CSCN2[C@]12C(=O)Nc1ccccc12 | – | – | – | – | ≥ 1.5 µM | ≥ 0.8 µM | 1.57 µM | –

Row | SMILES | inhibition at 100 µM (A-431) | inhibition at 100 µM (MCF7 [1]) | inhibition at 100 µM (A549) | inhibition at 100 µM (HepG2 [2]) | IC50 (HepG2 [3]) | IC50 (PC-3) | IC50 (HCT-116) | also measured
21 | CCCCCCCC/C=C\CC(=O)N1CCC[C@H]1COP(=O)([O-])OCC[N+](C)(C)C | 0.3% | 91% | 4.7% | 10.1% | – | – | – | –
22 | O=C(/C=C/c1ccc2ccccc2c1)[C@H]1[C@H](c2ccc3ccccc3c2)[C@H]2CSCN2[C@]12C(=O)Nc1ccccc12 | – | – | – | – | ≥ 1.5 µM | ≥ 0.8 µM | 1.57 µM | –
23 | O=C(/C=C/c1ccc(F)cc1)[C@H]1[C@H](c2ccc(F)cc2)[C@H]2CSCN2[C@]12C(=O)Nc1ccccc12 | – | – | – | – | ≥ 1.5 µM | ≥ 0.8 µM | 1.57 µM | –
24 | COc1ccc(/C=C/C(=O)[C@H]2[C@H](c3ccc(OC)cc3)[C@H]3CSCN3[C@]23C(=O)Nc2ccccc23)cc1 | – | – | – | – | ≥ 1.5 µM | ≥ 0.8 µM | 1.57 µM | –
25 | CCCCCCCCCCCCCCCC(=O)N1CC[C@H](COP(=O)([O-])OCC[N+](C)(C)C)C1 | 74.2% | 74.6% | 71.6% | 57.3% | – | – | – | –
26 | Cc1ccc([C@@H]2[C@H]3CSCN3[C@]3(C(=O)Nc4ccccc43)[C@H]2C(=O)/C=C/c2ccccc2)cc1 | – | – | – | – | ≥ 1.5 µM | ≥ 0.8 µM | 1.57 µM | –
27 | Cc1ccc(/C=C/C(=O)[C@H]2[C@H](c3ccc(C)cc3)C3CSCN3C23C(=O)Nc2c(Br)cc(Br)cc23)cc1 (some centres not stated) | – | – | – | – | ≥ 0.8 µM | – | 1.57 µg/mL | IC50 (MCF7 [4]): 2.5 µg/mL
28 | Cc1ccc(/C=C/C(=O)[C@H]2[C@H](c3ccc(C)cc3)[C@H]3CSCN3[C@]23C(=O)Nc2ccccc23)cc1 | – | – | – | – | ≥ 1.5 µM | ≥ 0.8 µM | 1.57 µM | –
29 | CCCCCCCCCCCCCCCCCC/C=C\CCCCCCCC(=O)N1CCC[C@@H]1OP(=O)([O-])OCC[N+](C)(C)C | 0.3% | 22.6% | 4.7% | 10.1% | – | – | – | –
30 | CCCCCCCCCCCCCCCCC/C=C\CCCCCCCC(=O)N1CC[C@H](OP(=O)([O-])OCC[N+](C)(C)C)C1 | 0.3% | 22.6% | 4.7% | 10.1% | – | – | – | –
31 | O=C1Nc2ccccc2C12N[C@H](Cc1ccccc1)[C@@H](c1ccc(Cl)cc1Cl)[C@@]21CN(/C=C/c2ccccc2)C/C(=C\c2ccc(Cl)cc2Cl)C1=O (some centres not stated) | – | – | – | – | – | – | – | IC50 (FaDu): 22 µM
32 | CCCCCCCCCCCCCCCCCC/C=C\CCCCCCCC(=O)N1CCC[C@H]1OP(=O)([O-])OCC[N+](C)(C)C | 0.3% | 22.6% | 4.7% | 10.1% | – | – | – | –
33 | CCCCCC/C=C\CCCCCCCC(=O)N1CCC[C@@H]1OP(=O)([O-])OCC[N+](C)(C)C | 0.3% | 22.6% | 4.7% | 10.1% | – | – | – | –
34 | CCCCCCCCCCCCCCCC(=O)N1CC[C@@H](OP(=O)([O-])OCC[N+](C)(C)C)C1 | 0.3% | 22.6% | 4.7% | 10.1% | – | – | – | –
35 | CCCCCCCC/C=C\CC(=O)N1CC[C@@H](COP(=O)([O-])OCC[N+](C)(C)C)C1 | 67.3% | 92.9% | 58.7% | 72.8% | – | – | – | –
36 | CCCCCC/C=C\CCCCCCCC(=O)N1CCC[C@H]1OP(=O)([O-])OCC[N+](C)(C)C | 0.3% | 22.6% | 4.7% | 10.1% | – | – | – | –
37 | O=C(/C=C/c1c(Cl)cccc1Cl)[C@H]1[C@H](c2c(Cl)cccc2Cl)[C@H]2CSCN2[C@]12C(=O)Nc1ccccc12 | – | – | – | – | ≥ 1.5 µM | ≥ 0.8 µM | 1.57 µM | –
38 | O=C(/C=C/c1cccs1)[C@H]1[C@H](c2cccs2)[C@H]2CSCN2[C@]12C(=O)Nc1ccccc12 | – | – | – | – | ≥ 1.5 µM | ≥ 0.8 µM | 1.57 µM | –
39 | O=C(/C=C/c1cccc([N+](=O)[O-])c1)[C@H]1[C@H](c2cccc([N+](=O)[O-])c2)C2CSCN2C12C(=O)Nc1c(Br)cc(Br)cc12 (some centres not stated) | – | – | – | – | 5 µM | – | 2.8 µM | IC50 (MCF7 [4]): 4 µM
